Measured values reported in patent US11707441B2, “Safinamide for treating myotonia” (Zambon S.P.A., priority 2018, dated 2023).
Like-named read-outs stand apart in the source and are kept apart here.

Key:
[1] = system: rat model of myotonia congenita; assay: In vivo antimyotonic activity in 9-AC-induced rat model of myotonia congenita, time of righting reflex (TRR)
Experimental: Myotonia was induced in rats by intraperitoneal injection of 9-AC, which is a known blocker of skeletal muscle ClC-1 chloride channels (Conte Camerino et al., Muscle Nerve. 1989; 12(11):898-904. Altamura et al., Br J Pharmacol. 2018; 175(10):1770-1780). Male Wistar rats (250-300 g) were used. Experiments were performed in accordance with the Guide for the Care and Use of Laboratory Animals and with Italian Health Department approval n. 194/2018-PR. Experimenters were blinded to the treatments. In this animal model, 9-AC mimics in vivo myotonia congenita, a human disease due to loss-of-function mutations in CLCN1 gene encoding ClC-1 channels. […] Nevertheless, the animals remained fully conscious and alert. Breathing was normal. When hearing an unexpected noise, the animals reacted by a jump on site but had great difficulties to move away due to muscle stiffness. Myotonia was evaluated by measuring the time of righting reflex (TRR, the time needed for the rat placed in supine position to turn back on its four paws). In rats, before 9-AC injections the TRR was less than 0.5 s. […] Then the TRR decreased gradually over time, being close to 1 s, 3 h after 9-AC. An anti-myotonic drug is expected to counteract the 9-AC-induced TRR prolongation. The TRR was evaluated about 10 minutes before 9-AC (Time 0) and 10, 37, 67, 127, and 187 min after 9-AC (30 mg/kg i.p.). The TRR measured at each time point was the mean of 7 measurements spaced by 1 min (to limit warm-up effect). Safinamide methanesulfonate (10 and 30 mg/kg as free base) or vehicle were administrated by oral gavage to the rats 17 min after 9-AC injection. 9-AC and safinamide methanesulfonate were dissolved in bicarbonate and 0.9% NaCl solution, respectively. To allow comparison between rats, the TRR measured at each time point was normalized as a function of TRR measured 10 min after 9AC injection in the same rat. Then average data were calculated for each dosage as the mean±S.E.M. Statistical analysis was performed using one-way analysis of variance (ANOVA) followed by ad-hoc Bonferroni's t test. […] In this in vivo model the dose-response curve of safinamide methanesulfonate at increasing doses (0.3, 1, 3, 10 and 30 mg/kg as free base) was also studied. To allow comparison between rats, the TRR measured at each time point was normalized as a function of TRR measured 10 min after 9AC injection in the same rat. Then average data were calculated for each drug/dosage as the mean±S.E.M. Statistical analysis will be performed using one-way analysis of variance (ANOVA) followed by ad-hoc Bonferroni's t test.

[2] = system: sarcolemma excitability in single myofibers of isolated Extensor Digitorum Longus (EDL) muscles; assay: In vitro antimyotonic activity in rat EDL skeletal muscle fibers, 9-AC-induced myotonia-like condition, two-microelectrode current clamp; type: cell-based; settings: for reduction of N spikes (maximum number of spikes): vs 9-AC alone
Experimental: The antimyotonic activity of safinamide was assessed by recording the sarcolemma excitability in single myofibers of isolated Extensor Digitorum Longus (EDL) muscles using two-microelectrode current-clamp technique. The in-vitro model of myotonia congenita was obtained by incubating rat EDL muscles with 9-anthracene carboxylic acid (9-AC) (Conte Camerino et al., Muscle Nerve. 1989; 12(11):898-904. Altamura et al., Br J Pharmacol. 2018; 175(10):1770-1780). The increase of sarcolemma excitability caused by 9-AC through the blockade of skeletal muscle ClC-1 chloride channels mimicked the abnormal action potential firing observed in patients affected by myotonia congenita.
EDL muscles were dissected out from male Wistar rats under deep anaesthesia (80 mg/kg ip ketamine and 10 mg/kg ip xylazine). Muscles were placed in a 25 ml muscle bath maintained at 30° C. and perfused with saline (gassed with 95% O2 and 5% CO2; pH=7.2-7.3). By means of standard two-intracellular-microelectrode technique, the resting membrane potential and excitability characteristics (number of spikes) of muscle fibres were measured in current clamp mode. The excitability characteristics of the sampled fibres were determined by recording the intracellular membrane potential response to a square-wave constant (100 ms) current pulse. In each fibre, the membrane potential was set by a steady holding current to −80 mV before passing the depolarizing pulses. By increasing the amplitude of the pulse we were able to elicit the first single action potential and by further increasing current intensity in the same fibre, the maximum number of elicitable spikes (N spikes) was measured (Pierno et al., Br J Pharmacol. 2006; 149(7):909-19).
Unwarranted muscle contractions were hampered with dantrolene sodium (2 mg/1). Cell excitability parameters (N spikes) was measured before (control) and after 50 μM 9-AC alone and concomitant application of safinamide at six different concentrations (0.1 to 30 μM). In these experimental conditions, safinamide methanesulfonate was used and dissolved as stock solution (10 mM) in distilled water, then it was diluted to the final concentrations in the muscle bath solution. One animal was used to test two concentrations of safinamide: one concentration in each EDL muscle.

[3] = system: hNav1.4 point mutations; assay: Potency in cells transfected with hNav1.4 point mutations compared to wild type; type: cell-based, human
Experimental: The effect of safinamide was evaluated on some hNav1.4 point mutations located in the inactivation site. Human skeletal muscle subtype of voltage-gated sodium channels (hNav1.4), either wild-type or myotonic mutants, were transiently transfected in HEK293T cells with the calcium-phosphate co-precipitation method. Whole-cell sodium currents (INa) were recorded at room temperature (20-22° C.) using Axon conventional patch-clamp hardware (Molecular Devices, USA). Voltage clamp protocols and data acquisition were performed with pCLAMP software (Axon Instruments). Bath solution contained (mM) 150 NaCl, 4 KCl, 2 CaCl2, 1 MgCl2, 5 Na-HEPES, and 5 glucose (pH 7.4). The pipette solution contained (in mM) 120 CsF, 10 CsCl, 10 NaCl, 5 EGTA, and 5 Cs-HEPES (pH 7.2). Patch pipettes made with Corning 7052 glass (King glass, USA) had resistance ranging from 1 to 3 MΩ. […] The concentration-response curves of safinamide were produced by obtaining the peak current amplitude measured in the presence of drug (IDRUG), normalized to the peak current amplitude measured in the same cell before drug application (ICTRL), as a function of drug concentration [(DRUG)]. […] The IC50 values were determined at resting membrane potential (tonic block: -120 mV at 0.1 Hz) and after repetitive depolarizing pulses to -20 mV at 10 Hz (use and frequency-dependent block). […]

[4] = molecular target: T1, hNav1.4 F1298C (Homo sapiens, UniProt P35499, F1298C); assay: Whole-cell patch clamp sodium current inhibition in transfected HEK293T cells, F1298C mutant; type: cell-based
T1 construct: expressed in transfected cells; host or cells: HEK293T
T1 sequence (P35499 whole entry F1298C): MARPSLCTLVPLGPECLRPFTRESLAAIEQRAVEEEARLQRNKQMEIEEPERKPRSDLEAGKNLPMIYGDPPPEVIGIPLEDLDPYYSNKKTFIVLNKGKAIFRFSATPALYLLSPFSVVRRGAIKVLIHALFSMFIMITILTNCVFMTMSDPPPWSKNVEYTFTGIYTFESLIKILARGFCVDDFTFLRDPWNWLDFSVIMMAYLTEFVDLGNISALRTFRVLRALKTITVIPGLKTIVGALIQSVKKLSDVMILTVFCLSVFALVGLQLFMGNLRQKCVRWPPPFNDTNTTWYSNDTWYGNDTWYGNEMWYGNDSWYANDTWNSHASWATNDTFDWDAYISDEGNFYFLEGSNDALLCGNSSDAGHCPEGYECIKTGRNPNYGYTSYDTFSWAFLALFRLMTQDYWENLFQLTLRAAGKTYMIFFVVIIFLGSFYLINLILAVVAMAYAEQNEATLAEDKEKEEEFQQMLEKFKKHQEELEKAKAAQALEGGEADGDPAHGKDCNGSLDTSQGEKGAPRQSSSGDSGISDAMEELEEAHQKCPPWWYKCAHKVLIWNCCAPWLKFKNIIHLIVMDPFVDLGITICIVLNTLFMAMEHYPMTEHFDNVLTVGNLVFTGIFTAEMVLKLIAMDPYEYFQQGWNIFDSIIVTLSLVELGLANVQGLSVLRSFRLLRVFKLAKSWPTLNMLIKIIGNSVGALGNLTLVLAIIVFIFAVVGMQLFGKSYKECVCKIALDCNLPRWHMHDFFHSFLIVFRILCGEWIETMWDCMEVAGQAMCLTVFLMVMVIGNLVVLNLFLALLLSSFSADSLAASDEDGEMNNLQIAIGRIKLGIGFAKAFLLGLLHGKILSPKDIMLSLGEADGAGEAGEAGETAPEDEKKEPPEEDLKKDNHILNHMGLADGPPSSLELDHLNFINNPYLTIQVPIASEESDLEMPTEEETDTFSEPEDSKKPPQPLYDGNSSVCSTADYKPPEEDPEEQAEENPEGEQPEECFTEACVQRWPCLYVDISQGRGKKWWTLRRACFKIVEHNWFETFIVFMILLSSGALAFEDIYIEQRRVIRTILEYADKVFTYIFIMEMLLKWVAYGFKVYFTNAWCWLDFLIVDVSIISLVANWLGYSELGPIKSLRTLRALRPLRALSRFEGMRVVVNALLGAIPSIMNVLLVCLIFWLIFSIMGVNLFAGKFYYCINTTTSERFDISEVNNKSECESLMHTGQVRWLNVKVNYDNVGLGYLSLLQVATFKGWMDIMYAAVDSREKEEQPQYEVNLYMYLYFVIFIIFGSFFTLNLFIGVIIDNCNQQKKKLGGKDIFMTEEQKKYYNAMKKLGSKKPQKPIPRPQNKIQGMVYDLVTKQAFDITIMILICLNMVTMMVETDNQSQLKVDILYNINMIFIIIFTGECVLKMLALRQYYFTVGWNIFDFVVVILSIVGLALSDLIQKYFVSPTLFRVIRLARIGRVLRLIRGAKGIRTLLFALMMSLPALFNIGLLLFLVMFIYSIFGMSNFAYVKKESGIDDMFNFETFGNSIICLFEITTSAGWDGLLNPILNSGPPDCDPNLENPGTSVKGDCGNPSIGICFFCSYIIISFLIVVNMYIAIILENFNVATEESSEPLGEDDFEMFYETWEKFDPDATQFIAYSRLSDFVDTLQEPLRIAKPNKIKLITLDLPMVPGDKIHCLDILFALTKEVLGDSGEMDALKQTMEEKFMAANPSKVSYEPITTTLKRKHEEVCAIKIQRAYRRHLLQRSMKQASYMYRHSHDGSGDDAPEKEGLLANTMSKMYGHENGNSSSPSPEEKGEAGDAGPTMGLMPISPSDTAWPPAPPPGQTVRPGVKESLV
Excerpt: p.F1298C: this mutation was found in a person, presenting with stiffness in facial, upper and lower limb muscles, mainly after contraction (Farinato et al., 2019). Symptoms worsened with cold and myotonia was reported as painful. The patient noticed a mild improvement of myotonia with exercise.
Human skeletal muscle subtype of voltage-gated sodium channels (hNav1.4), either wild-type or myotonic mutants, were transiently transfected in HEK293T cells with the calcium-phosphate co-precipitation method. Whole-cell sodium currents (INa) were recorded at room temperature (20-22° C.) using Axon conventional patch-clamp hardware (Molecular Devices, USA). […]
(§1) Inhibition of hNav1.4 channels by safinamide was evaluated by measuring the reduction of INa elicited from a holding potential (HP) of −120 to −30 mV at frequency stimulations of 0.1 and 10 Hz. The concentration-response curves of safinamide were produced by obtaining the peak current amplitude measured in the presence of drug (IDRUG), normalized to the peak current amplitude measured in the same cell before drug application (ICTRL), as a function of drug concentration [(DRUG)]. […] The IC50 values were determined at resting membrane potential (tonic block: −120 mV at 0.1 Hz) and after repetitive depolarizing pulses to −20 mV at 10 Hz (use and frequency-dependent block). […]

[5] = molecular target: T2, hNav1.4 P1158L (Homo sapiens, UniProt P35499, P1158L); assay: Whole-cell patch clamp sodium current inhibition in transfected HEK293T cells, P1158L mutant; type: cell-based
T2 construct: expressed in transfected cells; host or cells: HEK293T
T2 sequence (P35499 whole entry P1158L): as the sequence (P35499 whole entry F1298C) above, with P1158L, C1298F counted along it
Experimental: (§2) Human skeletal muscle subtype of voltage-gated sodium channels (hNav1.4), either wild-type or myotonic mutants, were transiently transfected in HEK293T cells with the calcium-phosphate co-precipitation method. Whole-cell sodium currents (INa) were recorded at room temperature (20-22° C.) using Axon conventional patch-clamp hardware (Molecular Devices, USA). Voltage clamp protocols and data acquisition were performed with pCLAMP software (Axon Instruments). Bath solution contained (mM) 150 NaCl, 4 KCl, 2 CaCl2, 1 MgCl2, 5 Na-HEPES, and 5 glucose (pH 7.4). The pipette solution contained (in mM) 120 CsF, 10 CsCl, 10 NaCl, 5 EGTA, and 5 Cs-HEPES (pH 7.2). […]
as §1

[6] = molecular target: hNav1.4 I1310N (Homo sapiens, UniProt P35499, I1310N); assay: Whole-cell patch clamp sodium current inhibition in transfected HEK293T cells, I1310N mutant; type: cell-based
Sequence of hNav1.4 I1310N (P35499 whole entry I1310N): as the sequence (P35499 whole entry F1298C) above, with C1298F, I1310N counted along it
Experimental: p.I1310N: this mutation has been found in 5 related of a French kindred, and is associated to sodium channel myotonia (Farinato et al., 2019).
Human skeletal muscle subtype of voltage-gated sodium channels (hNav1.4), either wild-type or myotonic mutants, were transiently transfected in HEK293T cells with the calcium-phosphate co-precipitation method. Whole-cell sodium currents (INa) were recorded at room temperature (20-22° C.) using Axon conventional patch-clamp hardware (Molecular Devices, USA). Voltage clamp protocols and data acquisition were performed with pCLAMP software (Axon Instruments). Bath solution contained (mM) 150 NaCl, 4 KCl, 2 CaCl2, 1 MgCl2, 5 Na-HEPES, and 5 glucose (pH 7.4). […]
as §1

[7] = molecular target: T3, hNav1.4 V1293I (Homo sapiens, UniProt P35499, V1293I); assay: Whole-cell patch clamp sodium current inhibition in transfected HEK293T cells, V1293I mutant; type: cell-based
T3 construct: expressed in transfected cells; host or cells: HEK293T
T3 sequence (P35499 whole entry V1293I): as the sequence (P35499 whole entry F1298C) above, with V1293I, C1298F counted along it
Experimental: p.V1293I: the V1293I mutation is associated to various phenotypes, from sodium channel myotonia to paramyotonia congenita+hyperkalemic periodic paralysis (Koch et al., 1995).
Human skeletal muscle subtype of voltage-gated sodium channels (hNav1.4), either wild-type or myotonic mutants, were transiently transfected in HEK293T cells with the calcium-phosphate co-precipitation method. Whole-cell sodium currents (INa) were recorded at room temperature (20-22° C.) using Axon conventional patch-clamp hardware (Molecular Devices, USA). Voltage clamp protocols and data acquisition were performed with pCLAMP software (Axon Instruments). […]
as §1

[8] = molecular target: T4, Wild Type hNav1.4 (Homo sapiens, UniProt P35499); assay: Whole-cell patch clamp sodium current inhibition in transfected HEK293T cells, wild type; type: cell-based
T4 construct: expressed in transfected cells; host or cells: HEK293T
T4 sequence (P35499 whole entry): as the sequence (P35499 whole entry F1298C) above, with C1298F counted along it
Experimental: as §2, §1

[9] = HP -120 mV, 0.1 Hz, read-out: IC50 ± SE Tonic block at 0.1 Hz
[10] = repetitive depolarizing pulses, 10 Hz, read-out: IC50 ± SE Use and frequency-dependent block at 10 Hz

Compound: O=C(O)c1c2ccccc2cc2ccccc12 [9-AC, 9-anthracene carboxylic acid]
- time of righting reflex (TRR) ([1]; 10 min after 9-AC injection): about 2 s
- time of righting reflex (TRR) ([1]; 30 min after 9-AC injection): about 4 s
- time of righting reflex (TRR) ([1]; 3 h after 9-AC injection): ~1 s
- increase of N spikes ([2]; 50 μM 9-AC alone vs control): 60%

Compound: Cc1cccc(C)c1OCC(C)N (centres unmarked) [mexiletine]
- potency in hNav1.4 point mutations transfected cells [3]: significantly decreases
- potency relative to safinamide in the same test (fold less potent) ([1]; TRR, 9-AC rat model): about 6 fold

Compound: C[C@H](NCc1ccc(OCc2cccc(F)c2)cc1)C(N)=O [safinamide, (2S)-2-[[4-[(3-fluorophenyl)methoxy]phenyl]methylamino]propanamide]
- IC50 [4, 9]: 173 ± 12 µM
- IC50 [4, 10]: 83 ± 2 µM
- reduction of TRR ([1]; 37 min after 9-AC, 3, 10 and 30 mg/kg oral): significant
- maximal effect on TRR prolongation ([1]; 67 min, dose of 10-30 mg/kg oral): 66%
- TRR inhibition ([1]; 67 min after 9-AC (peak effect), also with 1 mg/kg oral): significant
- TRR inhibition ([1]; 127 min after 9-AC, only 10 and 30 mg/kg oral): significant inhibition
- ED50 ([1]; Rattus norvegicus, 67 min, dose-response curve at 67 min, oral, read-out: ED50 (effective dose in inhibiting by 50% TRR prolongation)): 1.2 mg/kg
- effect on 9-AC-induced TRR prolongation ([1]; at peak effect (37 and 67 min after 9-AC), oral gavage): dose-dependently and significantly counteracted
- duration of effect on TRR prolongation ([1]; oral gavage, 17 min after 9-AC): ≤ 120 min
- IC50 ([2]; Rattus norvegicus, fit of concentration-response curve, ±SE of the fit, 50 μM 9-AC, read-out: IC50 (concentration able to reduce by 50% the 9-AC effect)): 13.4 ± 2.4 µM
- reduction of N spikes (maximum number of spikes) ([2]; safinamide 1 μM with 50 μM 9-AC): 22±6%
- reduction of N spikes (maximum number of spikes) ([2]; safinamide 5 μM with 50 μM 9-AC): 35±5%
- reduction of N spikes (maximum number of spikes) ([2]; safinamide 10 μM with 50 μM 9-AC): 42±5%
- reduction of N spikes (maximum number of spikes) ([2]; safinamide 30 μM with 50 μM 9-AC): 60±6%
- reversibility of antimyotonic effect upon wash-out ([2]; wash-out, 9-AC 50 μM): reversible
- IC50 [5, 9]: 148 ± 13 µM
- IC50 [5, 10]: 34 ± 3 µM
- IC50 [6, 9]: 170 ± 26 µM
- IC50 [6, 10]: 46 ± 7 µM
- IC50 [7, 9]: 171 ± 19 µM
- IC50 [7, 10]: 47 ± 5 µM
- IC50 [8, 9]: 160 ± 18 µM
- IC50 [8, 10]: 33 ± 4 µM
